Assay results: patent publication US11685912B2, “Affinity purification of glycosidase-cleaving enzymes” (TAKEDA PHARMACEUTICAL COMPANY LIMITED, priority 2018, dated 2023)

What was measured:
α-Gal A [1] = target: T1, α-Gal A (Homo sapiens, UniProt P06280); details: buffer comprising Tris at 150 mM
T1 sequence (P06280 32-429): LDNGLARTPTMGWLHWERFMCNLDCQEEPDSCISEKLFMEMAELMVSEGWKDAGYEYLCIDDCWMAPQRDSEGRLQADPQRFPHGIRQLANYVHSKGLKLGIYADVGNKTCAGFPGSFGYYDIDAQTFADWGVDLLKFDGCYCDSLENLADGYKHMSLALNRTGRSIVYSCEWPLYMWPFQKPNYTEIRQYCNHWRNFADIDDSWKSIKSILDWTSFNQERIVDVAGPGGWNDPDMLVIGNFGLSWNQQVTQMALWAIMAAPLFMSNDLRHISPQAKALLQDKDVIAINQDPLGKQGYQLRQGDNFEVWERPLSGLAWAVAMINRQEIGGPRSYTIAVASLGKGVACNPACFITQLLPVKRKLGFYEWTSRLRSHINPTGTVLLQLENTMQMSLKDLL

α-Gal A [2] = target: T1, α-Gal A; details: 10 mM Tris vs 0 mM Tris
Description: FIG. 1 depicts Thermal Stability curves of α-Gal A at 0 mM (blue) and 10 mM (red) Tris buffer.

elution of α-Gal A from the affinity resin (α-Gal A [1]): effectively eluted | α-Gal A thermal stability increase (α-Gal A [2]): 3 °C
Structure (SMILES): NC(CO)(CO)CO [Tris, tris(hydroxymethyl)aminomethane]
